Assay results: ChEMBL document CHEMBL1201862, “PubChem BioAssay data set” (2004)
Activity calls are given as the source filed them.

How the values were obtained:
Cytochrome P450 3A4 = Cytochrome P450 3A4 (Homo sapiens, UniProt P08684); settings: Potency;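 note: confirmatory qHTS run detecting inhibitors and substrates of CYP3A4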
[1] = molecular target: Heat shock protein HSP 90-alpha (Homo sapiens, UniProt P07900); assay type: functional, organism-based
BJ [2] = assay: cytotoxicity toward BJ-TERT fibroblasts, dose response, cell-based, RAS-independent, luminescence (AID 1933); assay type: functional; settings: Homo sapiens
BJ [3] = assay: cells; assay type: functional, cell-based; settings: Homo sapiens
BJ [4] = assay: cytotoxicity toward BJ-TERT-LT-ST fibroblasts, dose response, cell-based, RAS-independent, luminescence (AID 1935); assay type: functional; settings: Homo sapiens;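 note: BJ fibroblasts immortalized with TERT plus LT and ST oncogenes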
[5] = cytotoxicity toward DRD oncogenic fibroblasts, dose response, cell-based, non-viral oncogenic, luminescence (AID 1934); assay type: functional; settings: Homo sapiens
[6] = Luminescence Cell-Based Dose Retest to Confirm Inhibitors of Cancer Stem Cells. [Related pubchem assays (depositor defined):AID2717, AID2721]; assay type: functional; settings: Homo sapiens
[7] = NIH-3T3 fibroblast cytotoxicity, dose response, cytotoxicity control, cell-based, fluorescence, Alamar Blue, secondary assay (AID 2327); assay type: functional;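 note: NIH-3T3 mouse fibroblasts cultured with fluconazole at 8 µg/mL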
[8] = system: Streptococcus sp. 'group A'; assay: growth inhibition of control SK(-) GAS strain, dose response, counter-screen for streptokinase expression inhibitor project, luminescence, kanamycin, BacTiterGlo, confirmation (AID 1900); assay type: functional, organism-based
Streptokinase A = molecular target: T1, Streptokinase A (Streptococcus pyogenes serotype M1, UniProt P10520); assay: S. pyogenes streptokinase expression inhibitors, potency, dose response, plasminogen activation absorbance, OD405 (AID 1914); assay type: functional, Streptococcus pyogenes M1 GAS;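 note: secreted streptokinase activity via plasminogen activation per viability signal from cell pellet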
T1 sequence (P10520 whole entry): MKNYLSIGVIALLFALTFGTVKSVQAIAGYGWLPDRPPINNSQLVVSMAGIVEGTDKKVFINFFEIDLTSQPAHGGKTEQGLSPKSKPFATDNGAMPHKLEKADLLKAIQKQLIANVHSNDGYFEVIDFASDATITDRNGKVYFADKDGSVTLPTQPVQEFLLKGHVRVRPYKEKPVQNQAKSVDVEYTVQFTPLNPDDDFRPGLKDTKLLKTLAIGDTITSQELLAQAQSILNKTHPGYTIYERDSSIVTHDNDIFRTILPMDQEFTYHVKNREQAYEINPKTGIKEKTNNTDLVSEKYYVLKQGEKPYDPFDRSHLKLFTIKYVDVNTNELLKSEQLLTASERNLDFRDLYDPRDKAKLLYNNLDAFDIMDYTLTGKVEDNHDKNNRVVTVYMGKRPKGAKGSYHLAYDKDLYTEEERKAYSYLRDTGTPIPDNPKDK

[9] = C. albicans growth with fluconazole, confirmation, fluorescence, retest (AID 2467); assay type: functional, cell-based
[10] = inhibitors of intracellular T. cruzi replication, confirmation, NIH3T3 host cells, beta-gal luminescence (AID 2044); assay type: functional, cell-based;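 note: intracellular parasites grown in NIH/3T3 mouse fibroblasts as host cells; luminescent beta-galactosidase reporter signal from transgenic T. cruzi replicating inside host cells; inhibitors lower the luminescence signal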
[11] = microbe, parasite or virus in culture; assay type: functional; settings: Mycobacterium tuberculosis
[12] = cytotoxicity toward NIH3T3 fibroblasts, dose response, counter-screen, cell-based, ATP luminescence, mouse fibroblasts (AID 2010); assay type: functional;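 note: cells exposed to compound for about 90 hours before reading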
Streptococcus = assay: Group A Streptococcus viability loss, dose response, counter-screen for streptokinase expression inhibitor project, luminescence, BacTiterGlo (AID 1915); assay type: functional, organism-based;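 note: potency for reduction of bacterial viability or growth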
[13] = Shn3 3'UTR reporter inhibitors, dose response, cell-based, Clone20 osteoblasts, firefly luciferase, cherry-picked (AID 624132); assay type: functional;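 note: firefly luciferase luminescence from reporter carrying the Shn3 3'UTR in osteoblasts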
[14] = HepG2 cell cytotoxicity, dose response, cytotoxicity control for Shn3 inhibitor project, CellTiter-Glo, cherry-picked (AID 624134); assay type: functional, cell-based
[15] = control 3'UTR Renilla luciferase suppression, dose response, counter-screen for Shn3 inhibitor project, cell-based, Clone20-Shn3RL, cherry-picked (AID 624133); assay type: functional
[16] = inhibitors of clade B AD8 Env fusion, dose response, cell-based, cherry-pick (AID 652062); assay type: functional;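 note: luciferase signal from cell-cell fusion driven by HIV-1 clade B AD8 Env; potency is for inhibitors of fusion seen as a drop in luminescence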
[17] = molecular target: Eukaryotic translation initiation factor 4E (Mus musculus, UniProt P63073); assay: eIF4E–eIF4G protein interaction inhibitors, dose response, biochemical, TR-FRET (AID 855); assay type: functional;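 note: potency for disrupting eIF4E binding to eIF4GI seen as loss of FRET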
[18] = Luminescence Cell-Based Dose Confirmation HTS to Identify Activators of 5'UTR Stem-Loop Driven Alpha-Synuclein mRNA Translation in H4 Neuroglioblastoma Cells. [Related pubchem assays: 1829 (Project Summary), 1814 (Primary HTS)]; assay type: functional
[19] = Luminescence Cell-Based Dose Response HTS to Identify Activators of Luciferase Translation or Activity in H4 […] Cells. [Related pubchem assays: 1829 (Project Summary), 1814 (Primary HTS)]; assay type: functional
H4 = assay: Luminescence Cell-Based Dose Response HTS to Identify Activators of 5'UTR Stem-Loop Driven Prion Protein mRNA Translation in H4 Neuroglioblastoma Cells. [Related pubchem assays: 1829 (Project Summary), 1814 (Primary HTS)]; assay type: functional; settings: Homo sapiens
[20] = molecular target: Glyceraldehyde-3-phosphate dehydrogenase (Homo sapiens, UniProt P04406)
[21] = molecular target: Luciferin 4-monooxygenase (Photinus pyralis, UniProt P08659); assay: firefly luciferase enzyme inhibitors, dose response, biochemical, luminescence (AID 1891)
[22] = Luminescence Cell-Based Dose Confirmation HTS to Identify Inhibitors of Platelet Dense Granule Release. [Related pubchem assays: 1663 (Primary HTS), 1678 (Summary of Project)]; assay type: functional
Genome polyprotein = Genome polyprotein (dengue virus type 2, UniProt P29990); assay: Dengue-2 NS5 methyltransferase inhibitors, primary screen, biochemical, confirmation dose response (AID 588689); assay type: functional
Cytochrome P450 1A2 = molecular target: T2, Cytochrome P450 1A2 (Homo sapiens, UniProt P05177);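 note: PubChem cytochrome P450 panel assay, CYP1A2 panel member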
T2 sequence (P05177 whole entry): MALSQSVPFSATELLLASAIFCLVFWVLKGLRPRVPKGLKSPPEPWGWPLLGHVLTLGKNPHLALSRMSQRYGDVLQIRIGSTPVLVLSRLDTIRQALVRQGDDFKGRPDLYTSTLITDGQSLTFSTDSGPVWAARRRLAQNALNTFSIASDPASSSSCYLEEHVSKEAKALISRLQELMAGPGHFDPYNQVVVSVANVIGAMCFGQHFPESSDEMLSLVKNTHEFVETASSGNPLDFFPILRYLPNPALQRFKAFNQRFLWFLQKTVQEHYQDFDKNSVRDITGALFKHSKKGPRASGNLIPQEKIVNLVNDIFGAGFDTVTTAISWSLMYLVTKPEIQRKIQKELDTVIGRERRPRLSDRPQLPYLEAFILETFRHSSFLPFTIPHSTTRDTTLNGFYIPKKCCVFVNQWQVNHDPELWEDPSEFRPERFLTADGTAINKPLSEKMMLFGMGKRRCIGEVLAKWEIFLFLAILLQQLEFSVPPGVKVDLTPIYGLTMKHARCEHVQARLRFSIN

Paired box protein Pax-8 = Paired box protein Pax-8 (Homo sapiens, UniProt Q06710); assay: inhibitors of PAX8-driven TPO luciferase reporter, dose response, RMG-I cells, cherry-pick (AID 687027); assay type: functional, cell-based;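 note: luciferase reporter driven by Pax8 target thyroperoxidase promoter measured by SteadyGlo luminescence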
[23] = inhibitors of HIV Env-driven cell fusion, dose response, cherry-pick (AID 652057); assay type: functional, cell-based
[24] = THP-1 cell cytotoxicity, dose response, cytotoxicity control for non-replicating M. tuberculosis project (AID 489025); assay type: functional
[25] = Vero E6 cell cytotoxicity, dose response, cytotoxicity control for non-replicating M. tuberculosis project, secondary assay (AID 492998); assay type: functional, VeroE6; settings: Vero C1008
cells = assay type: functional

## CC(=O)Nc1ccc(C2C(C)CCC3C(=O)N4C(CCC(C)[C@@H]4c4ccc(NC(C)=O)cc4)C(=O)N32)cc1 (stereo not given in full)
Cytochrome P450 3A4
  AC50: 3.16 µM (inconclusive)

## O=S(=O)(Nc1nc2ccccc2nc1N1CCN(c2ccccn2)CC1)c1ccc(Cl)cc1
[1]
  AC50: 6.23 µM (active)

## CCC1=Nc2cc(C(=O)NCc3cccnc3)ccc2Sc2ccc(C)cc21
BJ [2]
  EC50: 4.48 µM (active)
BJ [3]
  EC50: 101 µM (active)
BJ [4]
  EC50: 16.6 µM (active)
[5]
  EC50: 3.06 µM (active)
[6]
  AC50: 0.493 µM (active)

## COc1ccc(-c2cc(C3CCN(Cc4cccc(C(F)(F)F)c4)CC3)[nH]n2)cc1
[7]
  EC50: > 160 µM (inactive)
[8]
  EC50: 25.1 µM (active)
Streptokinase A
  EC50: > 150 µM (not active)
[9]
  EC50: > 38 µM (not active)
[10]
  EC50: 0.626 µM (active)
[11]
  CC50: 35.5 µM (active)
[12]
  EC50: > 60 µM (not active)
Streptococcus
  EC50: > 150 µM (not active)

## COc1cc2ccnc(Cc3cccc(OC)c3OC)c2cc1OC
[13]
  AC50: 4.64 µM (active)
[14]
  AC50: 40.7 µM (active)
[15]
  AC50: 5.35 µM (active)

## Cc1ccc(/C=C2\SC(=S)N(CCC(=O)N3CCCCC3)C2=O)cc1
BJ [2]
  EC50: > 150 µM (not active)
BJ [3]
  EC50: > 150 µM (inconclusive)
BJ [4]
  EC50: > 150 µM (not active)
[5]
  EC50: > 150 µM (not active)

## O=C1Nc2ccc(Br)cc2/C1=C/C1CC=CCC1 (stereo not given)
[1]
  AC50: 8.03 µM (active)

## CCC(NCc1ccc(F)cc1)=C1C(=O)N(C)C(=O)N(C)C1=O
[16]
  AC50: 12.2 µM (active)

## CCNCC(O)COCC(O)CNCC (stereo not given)
[17]
  IC50: > 64 µM (inactive)

## O=C(/C=C/c1ccc(O)c([N+](=O)[O-])c1)c1ccc2ccccc2c1
[18]
  EC50: 16.6 µM (active)
[19]
  EC50: 14.5 µM (active)
H4
  EC50: 17.9 µM (active)
[11]
  CC50: > 40 µM (active)

## Cc1ccc(S(=O)(=O)CCC(=O)NCc2ccccc2Cl)cc1
[17]
  IC50: > 64 µM (inactive)

## O=C(O)CS(=O)(=O)c1ccc(-c2ccc(S(=O)(=O)CC(=O)O)cc2)cc1
[20]
  IC50: > 100 µM (not active)

## CCCn1c(-c2ccc(F)cc2)nc2c(NC3CC4CCC(C3)N4C)nc(C)nc21 (stereo not given)
Cytochrome P450 3A4
  AC50: 15.8 µM (inconclusive)

## COc1ccc(CNC(=O)c2cc3c(C)nc4ccccc4c3o2)c(OC)c1
[21]
  EC50: > 112 µM (not active)
[22]
  EC50: > 112 µM (not active)
[13]
  AC50: 3.22 µM (active)
[14]
  AC50: 3.5 µM (active)
[15]
  AC50: 2.47 µM (active)

## Cc1nc(N2CCOCC2)c2nc(-c3ccccc3)n(CCN3CCOCC3)c2n1
Cytochrome P450 3A4
  AC50: 10 µM (inconclusive)

## CCCCNc1nc(C)nc2c1nc(-c1ccccc1)n2CCN(C)C
Cytochrome P450 3A4
  AC50: 15.8 µM (inconclusive)

## Oc1c(CN2CCOCC2)cc(CN2CCOCC2)c(O)c1O
Genome polyprotein
  IC50: 15.2 µM (active)

## O=C(O)c1ccccc1C(=O)Nc1nccs1
[17]
  IC50: > 64 µM (inactive)
Cytochrome P450 1A2
  AC50: 15.8 µM (inconclusive)

## Cc1nn(-c2ccccc2)c(C)c1C(=O)OC(C)C(=O)NC1CCCCC1 (stereo not given)
[13]
  AC50: 8.19 µM (active)
[14]
  AC50: 41.8 µM (active)
[15]
  AC50: 25.8 µM (active)

## Nc1nc(N)c2cc(S(=O)(=O)c3cccc(C(F)(F)F)c3)ccc2n1
[13]
  AC50: 5.22 µM (active)
[14]
  AC50: 5.52 µM (active)
[15]
  AC50: 16.9 µM (active)

## C[C@@H]1CN([C@@H](C)CO)C(=O)c2cc(NC(=O)c3ccccc3)ccc2O[C@@H](C)CCCCO[C@H]1CN(C)Cc1ccc(C(F)(F)F)cc1
Paired box protein Pax-8
  AC50: 10.1 µM (active)

## C[C@@H]1CN([C@@H](C)CO)C(=O)Cc2cc(N(C)C)ccc2O[C@H]1CN(C)Cc1ccc(Oc2ccccc2)cc1
Paired box protein Pax-8
  AC50: 11 µM (active)

## COc1ccc(NC(=O)Nc2ccc3c(c2)C(=O)N([C@H](C)CO)C[C@H](C)[C@H](CN(C)S(=O)(=O)c2ccc(C)cc2)O3)cc1
[23]
  AC50: 3.61 µM (active)
[16]
  AC50: 11.2 µM (active)

## COc1cc(C(=O)OC2CC[C@]3(C)C4CCC5[C@]6(O)CC(O)[C@]7(O)C(CN8CC(C)CCC8[C@]7(C)O)[C@]6(O)C[C@@]53O[C@]24O)cc(OC)c1OC (stereo not given in full)
Cytochrome P450 3A4
  AC50: 20 µM (inconclusive)

## Cc1ccc(-c2nn(-c3ccccc3)cc2/C=N/NC(=O)c2ccncc2)o1
[24]
  CC50: 32.8 µM (active)
[25]
  CC50: > 20 µM (active)
cells
  IC50: 0.22 µM (active)

## O=C(/C=C/c1ccco1)c1ccccc1O
[17]
  IC50: 50 µM (inactive)

## O=C(/C=C/c1ccccc1)c1ccc(O)cc1O [2',4'-DIHYDROXYCHALCONE]
Cytochrome P450 3A4
  AC50: 1.58 µM (inconclusive)

## O=c1cc(-c2ccccc2)oc2c(O)c(O)ccc12 [7,8-DIHYDROXYFLAVONE]
Cytochrome P450 3A4
  AC50: 39.8 µM (inconclusive)

## O=C1C=C(O)C(=O)c2ccccc21 [LAWSONE]
Cytochrome P450 3A4
  AC50: 25.1 µM (inconclusive)
